Measured values taken from patent US20240270762A1, “PENICILLIN-BINDING PROTEIN INHIBITORS” (priority 2021, published 2024).
Read-outs that look alike come from different tables or passages of the source.

Tests used:
[1] = system: A. baumannii CDC-0033; assay: microbe, parasite or virus in culture; assay type: cell-based; conditions: Acinetobacter baumannii, CDC0033, read-out: MIC, A. baumannii CDC-0033
[2] = system: P. aeruginosa CDC-0110; assay: microbe, parasite or virus in culture; assay type: cell-based; conditions: Pseudomonas aeruginosa, CDC0110, read-out: Minimum inhibitory concentration, P. aeruginosa CDC-0110
[3] = system: A. baumannii 1258916; assay: microbe, parasite or virus in culture; assay type: cell-based, Acinetobacter baumannii; conditions: Acinetobacter baumannii, 1258916, read-out: MIC, A. baumannii 1258916
[4] = target: A. baumannii PBP2 (Acinetobacter baumannii, UniProt D0C8Z9); assay: Bocillin-FL competition binding via gel filtration, A. baumannii PBP2
Method in brief: (§1)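 Competitive equilibrium binding with Bocillin-FL reporter: PBP pre-incubated with inhibitor dilutions, Bocillin-FL added, 15 min incubation. Labelled enzyme isolated by size-exclusion spin plates, fluorescence measured; EC50 obtained by fitting bound fraction against inhibitor concentration with a Hill-coefficient model.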

[5] = system: B. humptydooensis ATCC BAA-2767; assay: microbe, parasite or virus in culture; assay type: cell-based; conditions: Burkholderia humptydooensis, ATCCBAA2767, read-out: Minimum inhibitory concentration (MIC), B. humptydooensis ATCC BAA-2767
[6] = system: A. baumannii ATCC 17978; assay: microbe, parasite or virus in culture; assay type: cell-based; conditions: Acinetobacter baumannii, ATCC17978, read-out: MIC, A. baumannii ATCC 17978
[7] = system: A. baumannii CDC-0045; assay: microbe, parasite or virus in culture; assay type: cell-based; conditions: Acinetobacter baumannii, CDC0045, read-out: MIC, A. baumannii CDC-0045
[8] = target: T1, A. baumannii PBP1a (Acinetobacter baumannii, UniProt A0ABX6CK30); assay: Bocillin-FL competition binding via gel filtration, A. baumannii PBP1a
T1 sequence (A0ABX6CK30 1-851): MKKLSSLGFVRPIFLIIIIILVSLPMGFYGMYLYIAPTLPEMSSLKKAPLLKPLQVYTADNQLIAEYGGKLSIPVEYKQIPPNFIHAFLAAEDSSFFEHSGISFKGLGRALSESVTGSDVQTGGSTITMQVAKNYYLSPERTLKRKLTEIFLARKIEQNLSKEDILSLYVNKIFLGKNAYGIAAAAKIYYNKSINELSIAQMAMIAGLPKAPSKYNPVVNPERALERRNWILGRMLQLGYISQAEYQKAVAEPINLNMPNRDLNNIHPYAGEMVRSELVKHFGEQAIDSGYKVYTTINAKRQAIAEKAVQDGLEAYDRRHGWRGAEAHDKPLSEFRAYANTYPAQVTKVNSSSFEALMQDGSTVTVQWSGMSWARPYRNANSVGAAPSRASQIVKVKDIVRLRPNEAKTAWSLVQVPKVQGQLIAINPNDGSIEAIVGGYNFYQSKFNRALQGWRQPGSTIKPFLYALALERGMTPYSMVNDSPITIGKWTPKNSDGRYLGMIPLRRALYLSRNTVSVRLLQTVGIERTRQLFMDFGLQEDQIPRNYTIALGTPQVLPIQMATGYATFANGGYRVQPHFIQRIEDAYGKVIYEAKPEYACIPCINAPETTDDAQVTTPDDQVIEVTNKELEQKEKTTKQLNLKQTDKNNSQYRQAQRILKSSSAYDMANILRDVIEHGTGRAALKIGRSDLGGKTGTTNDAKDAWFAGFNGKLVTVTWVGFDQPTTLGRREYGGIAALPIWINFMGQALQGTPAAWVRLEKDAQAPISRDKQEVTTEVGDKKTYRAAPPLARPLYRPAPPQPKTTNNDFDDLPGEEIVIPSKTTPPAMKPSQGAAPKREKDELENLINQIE
Method in brief: as §1

[9] = system: P. aeruginosa ATCC 35151; assay: microbe, parasite or virus in culture; assay type: cell-based; conditions: Pseudomonas aeruginosa, ATCC35151, read-out: Minimum inhibitory concentration, P. aeruginosa ATCC 35151
[10] = system: A. baumannii ATCC 19606; assay: microbe, parasite or virus in culture; assay type: cell-based; conditions: Acinetobacter baumannii, ATCC19606, read-out: MIC, A. baumannii ATCC 19606
[11] = system: P. aeruginosa ATCC 27853; assay: microbe, parasite or virus in culture; assay type: cell-based; conditions: Pseudomonas aeruginosa, ATCC27853, read-out: Minimum inhibitory concentration, P. aeruginosa ATCC 27853
[12] = system: A. baumannii CDC-0036; assay: microbe, parasite or virus in culture; assay type: cell-based; conditions: Acinetobacter baumannii, CDC0036, read-out: MIC, A. baumannii CDC-0036
[13] = competition binding assay using Bocillin-FL via gel filtration, read-out: A. baumannii PBP1a Potency

A. baumannii PBP2, sequence (D0C8Z9 whole entry): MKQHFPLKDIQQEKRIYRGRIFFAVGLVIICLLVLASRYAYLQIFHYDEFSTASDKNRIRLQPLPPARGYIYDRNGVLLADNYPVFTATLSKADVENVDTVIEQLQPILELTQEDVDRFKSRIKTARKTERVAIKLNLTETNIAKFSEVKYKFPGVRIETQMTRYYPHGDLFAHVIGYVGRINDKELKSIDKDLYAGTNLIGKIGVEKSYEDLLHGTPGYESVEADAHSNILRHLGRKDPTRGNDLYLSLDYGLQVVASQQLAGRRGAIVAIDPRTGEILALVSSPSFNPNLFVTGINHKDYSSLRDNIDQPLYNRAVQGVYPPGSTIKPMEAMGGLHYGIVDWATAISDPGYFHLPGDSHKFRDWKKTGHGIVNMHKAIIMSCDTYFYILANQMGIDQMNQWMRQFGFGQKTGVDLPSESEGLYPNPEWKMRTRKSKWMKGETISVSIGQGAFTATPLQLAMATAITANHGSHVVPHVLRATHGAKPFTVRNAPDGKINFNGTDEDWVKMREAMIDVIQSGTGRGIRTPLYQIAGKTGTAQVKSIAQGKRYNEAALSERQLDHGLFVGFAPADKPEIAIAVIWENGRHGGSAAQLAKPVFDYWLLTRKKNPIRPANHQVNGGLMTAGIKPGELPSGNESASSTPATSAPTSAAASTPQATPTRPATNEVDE

SMILES | MIC [1] [µg/mL] | MIC [2] [µg/mL] | MIC [3] [µg/mL] | EC50 [4] [µM] | MIC [5] [µg/mL] | MIC [6] [µg/mL] | MIC [7] [µg/mL] | EC50 [8, 13] [µM] | MIC [9] [µg/mL] | MIC [10] [µg/mL] | MIC [11] [µg/mL] | MIC [12] [µg/mL] | EC50 [8] [µM]
O=C(O)c1c(F)ccc2c1OB(O)[C@@H](NC(=O)[C@H](NC(=O)N1CCN(C3CCN(C(=O)Nc4cc(O)ccc4Cl)CC3)C1=O)c1cc(F)c(O)c(O)c1Cl)C2 (single isomer, unassigned) [Example 448] | < 1 | < 1 | < 1 | < 10 | < 1 | < 1 | < 1 | < 10 | < 1 | < 1 | < 1 | < 1 | 
O=C(O)c1c(F)ccc2c1OB(O)[C@@H](NC(=O)[C@H](NC(=O)N1CCN(C3CCN(C(=O)Nc4c(F)ccc(O)c4Cl)CC3)C1=O)c1cc(F)c(O)c(O)c1Cl)C2 (single isomer, unassigned) [Example 455] | < 1 | < 1 | < 1 | < 10 | < 1 | < 1 | < 1 | < 10 | < 1 | < 1 | < 1 | < 1 | 
O=C(O)c1c(F)ccc2c1OB(O)[C@@H](NC(=O)[C@H](NC(=O)N1CCN(C3CCN(C(=O)Nc4cccc(O)c4F)CC3)C1=O)c1cc(F)c(O)c(O)c1Cl)C2 (single isomer, unassigned) [Example 446] | < 1 | < 1 | < 1 | < 10 | < 1 | < 1 | < 1 | 10 to 50 | < 1 | < 1 | < 1 | < 1 | 
O=C(O)c1c(F)ccc2c1OB(O)[C@@H](NC(=O)[C@H](NC(=O)N1CCN(Cc3ccc(O)c(O)c3Cl)C(=O)C1=O)c1ccc(P(=O)(O)O)cc1)C2 (single isomer, unassigned) [Example 160] | < 1 | < 1 | < 1 | < 10 | < 1 | < 1 | < 1 | < 10 | < 1 | < 1 | < 1 | < 1 | 
O=C(O)c1c(F)ccc2c1OB(O)[C@@H](NC(=O)[C@H](NC(=O)N1CCN(C3CCN(C(=O)c4cccnc4)CC3)C1=O)c1cc(F)c(O)c(O)c1Cl)C2 [Example 460, (R)-3-((R)-2-(2-chloro-5-fluoro-3,4-dihydroxyphenyl)-2-(3-(1-nicotinoylpiperidin-4-yl)-2-oxoimidazolidine-1-carboxamido)acetamido)-7-fluoro-2-hydroxy-3,4-dihydro-2H-benzo[e][1,2]oxaborinine-8-carboxylic acid] | < 1 | < 1 | < 1 | 10 to 50 | < 1 | < 1 | < 1 |  | < 1 | < 1 | < 1 | < 1 | 10 to 50
O=C(O)c1c(F)ccc2c1OB(O)[C@@H](NC(=O)[C@H](NC(=O)N1CCN(Cc3ccc(O)c(O)c3Cl)C(=O)C1=O)c1ccc(P(=O)(O)O)c(F)c1F)C2 [Example 166, (R)-3-((R)-2-(4-(2-chloro-3,4-dihydroxybenzyl)-2,3-dioxopiperazine-1-carboxamido)-2-(2,3-difluoro-4-phosphonophenyl)acetamido)-7-fluoro-2-hydroxy-3,4-dihydro-2H-benzo[e][1,2]oxaborinine-8-carboxylic acid] | < 1 | < 1 | < 1 | 10 to 50 | < 1 | < 1 | < 1 | 10 to 50 | < 1 | < 1 | < 1 | < 1 | 
